One block for each compound: values may come before it.
Assays:
Type in all cases: ADME
[1] = target: T1, Glutathione S-transferase kappa 1 (Homo sapiens, UniProt Q9Y2Q3); test: Substrates for human mitochondrial glutathione transferase GSTK1
T1 sequence (Q9Y2Q3 whole entry): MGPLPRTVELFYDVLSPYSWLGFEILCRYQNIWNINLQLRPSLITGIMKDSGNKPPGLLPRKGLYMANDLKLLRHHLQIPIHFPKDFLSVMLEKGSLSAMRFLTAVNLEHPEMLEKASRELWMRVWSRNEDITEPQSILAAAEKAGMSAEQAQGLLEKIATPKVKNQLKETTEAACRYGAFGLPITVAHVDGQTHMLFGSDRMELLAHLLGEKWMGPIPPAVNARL

[2] = target: T2, Maleylacetoacetate isomerase (Homo sapiens, UniProt O43708); test: Substrates for human cytosolic glutathione transferase GSTZ1
T2 sequence (O43708 whole entry): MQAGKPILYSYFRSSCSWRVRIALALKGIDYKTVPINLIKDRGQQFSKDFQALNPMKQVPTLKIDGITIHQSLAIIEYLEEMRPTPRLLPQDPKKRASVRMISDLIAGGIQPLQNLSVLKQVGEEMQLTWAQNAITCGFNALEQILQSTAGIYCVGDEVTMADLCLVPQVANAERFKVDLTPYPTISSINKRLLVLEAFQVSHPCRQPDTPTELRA

[3] = target: T3, Glutathione S-transferase A4 (Homo sapiens, UniProt O15217); test: Substrates for human cytosolic glutathione transferase GSTA4
T3 sequence (O15217 whole entry): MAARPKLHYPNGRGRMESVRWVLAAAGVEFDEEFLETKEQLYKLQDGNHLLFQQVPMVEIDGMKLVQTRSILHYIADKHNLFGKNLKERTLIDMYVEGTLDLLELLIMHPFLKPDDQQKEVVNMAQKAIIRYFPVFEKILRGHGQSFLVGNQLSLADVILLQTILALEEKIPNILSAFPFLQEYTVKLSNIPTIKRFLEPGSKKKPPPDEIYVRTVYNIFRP

[4] = target: T4, Glutathione S-transferase Mu 2 (Homo sapiens, UniProt P28161); test: Substrates for human cytosolic glutathione transferase GSTM2
T4 sequence (P28161 whole entry): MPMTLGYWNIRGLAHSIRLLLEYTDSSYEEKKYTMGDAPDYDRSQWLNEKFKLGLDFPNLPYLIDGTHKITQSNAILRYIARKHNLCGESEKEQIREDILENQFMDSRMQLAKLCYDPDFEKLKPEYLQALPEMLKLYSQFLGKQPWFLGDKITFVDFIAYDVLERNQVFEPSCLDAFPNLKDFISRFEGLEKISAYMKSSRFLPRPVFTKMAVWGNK

[5] = target: Glutathione S-transferase P (Homo sapiens, UniProt P09211); test: Substrates for human cytosolic glutathione transferase GSTP1
Glutathione S-transferase P, sequence (P09211 whole entry): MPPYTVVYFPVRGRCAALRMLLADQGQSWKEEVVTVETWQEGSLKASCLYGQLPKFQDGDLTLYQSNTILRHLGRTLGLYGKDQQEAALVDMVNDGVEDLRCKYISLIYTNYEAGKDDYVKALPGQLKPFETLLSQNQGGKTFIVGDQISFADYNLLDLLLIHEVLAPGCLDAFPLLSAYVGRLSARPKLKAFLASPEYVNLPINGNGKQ

[6] = target: T5, UDP-glucuronosyltransferase 1A1 (Homo sapiens, UniProt P22309); test: Substrate of human UDP-glucuronosyltransferase UGT1A1
T5 sequence (P22309 whole entry): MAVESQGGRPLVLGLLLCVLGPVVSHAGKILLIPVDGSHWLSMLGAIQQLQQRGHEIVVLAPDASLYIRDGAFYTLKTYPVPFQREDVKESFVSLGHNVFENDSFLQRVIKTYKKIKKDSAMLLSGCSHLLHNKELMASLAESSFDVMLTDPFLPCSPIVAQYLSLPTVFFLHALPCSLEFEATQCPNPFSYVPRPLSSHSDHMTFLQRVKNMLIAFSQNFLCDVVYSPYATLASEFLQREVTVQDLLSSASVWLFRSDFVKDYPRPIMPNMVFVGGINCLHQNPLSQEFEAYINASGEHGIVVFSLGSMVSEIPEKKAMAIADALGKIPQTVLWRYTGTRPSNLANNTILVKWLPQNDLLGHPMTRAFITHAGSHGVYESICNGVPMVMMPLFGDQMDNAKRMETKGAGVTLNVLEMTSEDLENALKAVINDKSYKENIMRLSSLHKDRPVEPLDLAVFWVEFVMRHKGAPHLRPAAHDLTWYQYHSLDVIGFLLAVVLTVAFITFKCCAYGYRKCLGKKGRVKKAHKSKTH

[7] = target: T6, UDP-glucuronosyltransferase 2B7 (Homo sapiens, UniProt P16662); test: Substrate of human UDP-glucuronosyltransferase UGT2B7
T6 sequence (P16662 whole entry): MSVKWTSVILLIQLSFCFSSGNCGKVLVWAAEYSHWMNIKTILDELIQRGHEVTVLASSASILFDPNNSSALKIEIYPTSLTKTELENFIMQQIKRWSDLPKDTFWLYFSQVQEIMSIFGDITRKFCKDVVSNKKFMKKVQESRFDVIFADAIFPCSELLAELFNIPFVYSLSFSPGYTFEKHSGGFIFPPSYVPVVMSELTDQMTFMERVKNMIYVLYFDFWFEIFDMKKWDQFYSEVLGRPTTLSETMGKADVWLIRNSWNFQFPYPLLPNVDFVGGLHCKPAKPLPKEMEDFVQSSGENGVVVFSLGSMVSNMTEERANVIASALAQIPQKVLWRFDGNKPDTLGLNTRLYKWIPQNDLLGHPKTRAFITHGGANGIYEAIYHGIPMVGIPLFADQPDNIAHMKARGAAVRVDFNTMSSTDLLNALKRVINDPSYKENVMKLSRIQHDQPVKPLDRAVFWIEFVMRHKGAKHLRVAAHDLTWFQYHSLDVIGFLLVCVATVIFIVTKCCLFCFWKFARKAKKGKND

[8] = target: T7, UDP-glucuronosyltransferase 2B4 (Homo sapiens, UniProt P06133); test: Substrate of human UDP-glucuronosyltransferase UGT2B4
T7 sequence (P06133 whole entry): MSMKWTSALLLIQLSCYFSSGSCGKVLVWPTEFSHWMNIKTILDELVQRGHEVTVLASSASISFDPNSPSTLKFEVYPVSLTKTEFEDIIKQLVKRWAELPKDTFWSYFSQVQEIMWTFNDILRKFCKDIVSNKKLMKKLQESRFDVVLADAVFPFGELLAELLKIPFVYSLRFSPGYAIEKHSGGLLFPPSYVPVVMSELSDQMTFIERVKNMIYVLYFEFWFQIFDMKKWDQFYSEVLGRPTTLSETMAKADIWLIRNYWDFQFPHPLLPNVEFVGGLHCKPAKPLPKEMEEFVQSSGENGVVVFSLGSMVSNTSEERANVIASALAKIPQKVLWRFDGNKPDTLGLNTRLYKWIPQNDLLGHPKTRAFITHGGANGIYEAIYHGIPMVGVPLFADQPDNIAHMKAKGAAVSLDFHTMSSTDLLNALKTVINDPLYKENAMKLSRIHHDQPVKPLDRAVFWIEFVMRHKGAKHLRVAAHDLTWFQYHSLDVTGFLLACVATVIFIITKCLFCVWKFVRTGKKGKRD

Cytochrome P450 2C8 = target: T8, Cytochrome P450 2C8 (Homo sapiens, UniProt P10632); test: Clinically relevant substrates of human liver microsomal P450 enzymes, isoform CYP2C8; conditions: microsomes
T8 sequence (P10632 whole entry): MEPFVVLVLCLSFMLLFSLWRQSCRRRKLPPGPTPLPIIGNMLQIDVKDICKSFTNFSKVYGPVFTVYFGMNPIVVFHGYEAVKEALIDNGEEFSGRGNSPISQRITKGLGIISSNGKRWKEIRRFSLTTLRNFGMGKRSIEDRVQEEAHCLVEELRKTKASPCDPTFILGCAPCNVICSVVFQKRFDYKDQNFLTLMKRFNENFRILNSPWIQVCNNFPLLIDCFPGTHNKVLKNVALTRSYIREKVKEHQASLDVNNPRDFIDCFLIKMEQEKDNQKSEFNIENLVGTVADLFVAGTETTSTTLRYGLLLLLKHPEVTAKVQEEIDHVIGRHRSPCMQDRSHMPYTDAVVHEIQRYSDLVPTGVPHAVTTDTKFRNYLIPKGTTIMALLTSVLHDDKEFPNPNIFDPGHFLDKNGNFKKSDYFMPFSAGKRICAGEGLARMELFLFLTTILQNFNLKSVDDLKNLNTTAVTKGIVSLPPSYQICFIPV

[9] = target: T9, UDP-glucuronosyltransferase 2B15 (Homo sapiens, UniProt P54855); test: Substrate of human UDP-glucuronosyltransferase UGT2B15
T9 sequence (P54855 whole entry): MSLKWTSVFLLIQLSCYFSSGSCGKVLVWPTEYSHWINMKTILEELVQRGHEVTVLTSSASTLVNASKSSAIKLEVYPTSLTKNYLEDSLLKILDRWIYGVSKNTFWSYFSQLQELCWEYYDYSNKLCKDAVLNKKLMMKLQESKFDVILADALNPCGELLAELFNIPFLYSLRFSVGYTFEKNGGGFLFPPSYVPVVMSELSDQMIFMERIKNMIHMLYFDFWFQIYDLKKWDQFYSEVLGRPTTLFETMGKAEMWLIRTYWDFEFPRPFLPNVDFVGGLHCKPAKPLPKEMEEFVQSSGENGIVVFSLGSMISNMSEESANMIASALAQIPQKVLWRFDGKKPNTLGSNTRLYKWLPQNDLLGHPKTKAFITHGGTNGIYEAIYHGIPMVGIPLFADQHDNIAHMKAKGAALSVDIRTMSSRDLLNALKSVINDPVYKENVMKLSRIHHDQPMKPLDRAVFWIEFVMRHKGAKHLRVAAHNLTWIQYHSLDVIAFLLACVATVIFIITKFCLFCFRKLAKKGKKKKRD

SMILES: CCCCC[C@@H](/C=C/C=C\C/C=C\C/C=C\CCCC(=O)O)OO
- Activity [1]: Substrate

SMILES: CC(Cl)C(=O)O (stereo not given)
- Activity [2]: Substrate

- Activity [3]: Substrate
SMILES: CCCCCCC(O)/C=C/C=O (stereo not given)

- Activity [1]: Substrate
SMILES: CCCCC/C=C\C/C=C\C/C=C\C=C\CCCCC(=O)O

- Activity [4]: Substrate
- Activity [5]: Substrate
- Activity [3]: Substrate
SMILES: C/C=C/C(=O)OCC1=CCCCC1=O

- Activity [3]: Substrate
SMILES: CCCCCC(O)/C=C/C=O (stereo not given) [4-HYDROXYNON-2-ENAL]

- Activity [6]: Substrate
- Activity [7]: Substrate
- Activity [8]: Substrate
SMILES: COc1ccccc1OCCNCC(O)COc1cccc2[nH]c3ccccc3c12 (stereo not given) [CARVEDILOL]

- Activity (Cytochrome P450 2C8): Substrate
SMILES: COCc1c(C(C)C)nc(C(C)C)c(/C=C/[C@@H](O)C[C@@H](O)CC(=O)O)c1-c1ccc(F)cc1 [CERIVASTATIN]

SMILES: O=C(O)C(Cl)Cl [DICHLOROACETIC ACID]
- Activity [2]: Substrate

- Activity [9]: Substrate
- Activity [8]: Substrate
SMILES: C[C@]12CC[C@@H]3c4ccc(O)cc4CC[C@H]3[C@@H]1C[C@@H](O)[C@@H]2O [ESTRIOL]

Source: ChEMBL document CHEMBL1743201, “Casarett and Doull's Toxicology The Basic Science of Poisons, 7th edition” (2008)
